{"source": "ChEMBL document CHEMBL1155637", "about": "“Oleanane triterpenes from Junellia tridens” (2000)", "data": [{"tested_on": "Mycobacterium tuberculosis", "test": "Antitubercular activity against Mycobacterium tuberculosis H37Rv ATCC 27294 by BACTEC 460 radiorespirometric assay", "type": "functional", "units": {"MIC": "µg/mL"}, "values": [{"smiles": "CC1(C)CC[C@]2(C(=O)O)CC[C@]3(C)C(=CC[C@@H]4[C@@]5(C)CC[C@@H](O)C(C)(C)[C@@H]5CC[C@]43C)[C@@H]2C1", "MIC": 16}, {"smiles": "CO[C@H]1/C=C/O[C@@]2(C)Oc3c(C)c(O)c4c(O)c(c(/C=N/N5CCN(C)CC5)c(O)c4c3C2=O)NC(=O)/C(C)=C\\C=C\\[C@H](C)[C@H](O)[C@@H](C)[C@@H](O)[C@@H](C)[C@H](OC(C)=O)[C@@H]1C", "note": "[RIFAMPIN]", "MIC": 0.16}, {"smiles": "CC(C)[C@@H]1CC[C@]2(C)[C@H](CC=C3[C@@H]4CC(C)(C)CC[C@]4(C(=O)O)CC[C@]32C)[C@@]1(C)CCC(=O)O", "MIC": 128}, {"smiles": "CC1(C)CC[C@]2(C(=O)O)CC[C@]3(C)C(=CC[C@@H]4[C@@]5(C)CCC(=O)C(C)(C)[C@@H]5CC[C@]43C)[C@@H]2C1", "note": "[OLEANONIC ACID]", "MIC": 16}, {"smiles": "CC1(C)CC[C@]2(C(=O)O)CC[C@]3(C)C(=C2C1)C=C[C@@H]1[C@@]2(C)CC[C@@H](O)C(C)(C)[C@@H]2CC[C@]13C", "MIC": 64}, {"smiles": "C=C(C)[C@@H]1CC[C@]2(C(=O)O)CC[C@]3(C)[C@H](CC[C@@H]4[C@@]5(C)CC[C@@H](O)C(C)(C)[C@@H]5CC[C@]43C)[C@@H]12", "note": "[EPIBETULINIC ACID]", "MIC": 50}, {"smiles": "CC1(C)CC[C@@]23CC[C@]4(C)[C@@](C=C[C@@H]5[C@@]6(C)CC[C@@H](O)C(C)(C)[C@@H]6CC[C@]54C)(OC2=O)[C@@H]3C1", "MIC": 64}, {"smiles": "CC1(C)CC[C@]2(C(=O)O)CC[C@]3(C)C(=CC[C@@H]4[C@@]5(C)CC[C@H](O)C(C)(C)[C@@H]5CC[C@]43C)[C@@H]2C1", "note": "[OLEANOLIC_ACID]", "MIC": 50}]}]}
